Values after ≈ are worked out from the molar mass of the structure shown. Active and inactive are the calls of the source. The rule behind the calls is not given here.
What was measured:
[1] = tested on: Proteus vulgaris; test: Antimicrobial activity against Proteus vulgaris MTCC 1771 assessed as growth inhibition at 100 ug/ml after 24 hr by agar streak dilution method; type: functional, organism-based
[2] = tested on: Bacillus cereus; test: Antimicrobial activity against Bacillus cereus MTCC 430 assessed as growth inhibition at 100 ug/ml after 24 hr by agar streak dilution method; type: functional, organism-based
[3] = tested on: Pseudomonas aeruginosa; test: Antimicrobial activity against Pseudomonas aeruginosa MTCC 741 assessed as growth inhibition at 100 ug/ml after 24 hr by agar streak dilution method; type: functional, organism-based
[4] = tested on: Mycobacterium tuberculosis; test: Antituberculosis activity against Mycobacterium tuberculosis H37Rv assessed as growth inhibition after 12 to 28 days by L-J MIC method; type: functional; details: for MIC: Mycobacterium tuberculosis, H37Rv
[5] = tested on: Candida albicans; test: Antimicrobial activity against Candida albicans MTCC 183 assessed as growth inhibition after 48 hr by agar streak dilution method; type: functional; details: MTCC 183, 48 h
[6] = tested on: Aspergillus clavatus; test: Antimicrobial activity against Aspergillus clavatus MTCC 1323 assessed as growth inhibition after 48 hr by agar streak dilution method; type: functional; details: MTCC 1323, 48 h
[7] = tested on: Aspergillus fumigatus; test: Antimicrobial activity against Aspergillus fumigatus MTCC 343 assessed as growth inhibition after 48 hr by agar streak dilution method; type: functional; details: MTCC 343, 48 h
[8] = tested on: Aspergillus niger; test: Antimicrobial activity against Aspergillus niger MTCC 282 assessed as growth inhibition after 48 hr by agar streak dilution method; type: functional; details: MTCC 282, 48 h
[9] = tested on: Shigella flexneri; test: Antimicrobial activity against Shigella flexneri MTCC1457 assessed as growth inhibition after 24 hr by agar streak dilution method; type: functional; details: MTCC1457, 24 h
[10] = tested on: Salmonella typhi; test: Antimicrobial activity against Salmonella enterica subsp. enterica serovar Typhi MTCC 733 assessed as growth inhibition after 24 hr by agar streak dilution method; type: functional; details: MTCC 733, 24 h
[11] = tested on: Klebsiella pneumoniae; test: Antimicrobial activity against Klebsiella pneumoniae MTCC 109 assessed as growth inhibition after 24 hr by agar streak dilution method; type: functional; details: MTCC 109, 24 h
[12] = tested on: Escherichia coli; test: Antimicrobial activity against Escherichia coli MTCC 739 assessed as growth inhibition after 24 hr by agar streak dilution method; type: functional; details: MTCC 739, 24 h
[13] = tested on: Staphylococcus aureus; test: Antimicrobial activity against Staphylococcus aureus MTCC 96 assessed as growth inhibition after 24 hr by agar streak dilution method; type: functional; details: MTCC 96, 24 h
[14] = tested on: Candida albicans; test: Antimicrobial activity against Candida albicans MTCC 183 assessed as diameter of growth inhibition zone after 48 hr; type: functional
[15] = tested on: Aspergillus clavatus; test: Antimicrobial activity against Aspergillus clavatus MTCC 1323 assessed as diameter of growth inhibition zone after 48 hr; type: functional
[16] = tested on: Aspergillus fumigatus; test: Antimicrobial activity against Aspergillus fumigatus MTCC 343 assessed as diameter of growth inhibition zone after 48 hr; type: functional
[17] = tested on: Aspergillus niger; test: Antimicrobial activity against Aspergillus niger MTCC 282 assessed as diameter of growth inhibition zone after 48 hr; type: functional
[18] = tested on: Shigella flexneri; test: Antimicrobial activity against Shigella flexneri MTCC1457 assessed as diameter of growth inhibition zone after 24 hr; type: functional
[19] = tested on: Salmonella typhi; test: Antimicrobial activity against Salmonella enterica subsp. enterica serovar Typhi MTCC 733 assessed as diameter of growth inhibition zone after 24 hr; type: functional
[20] = tested on: Klebsiella pneumoniae; test: Antimicrobial activity against Klebsiella pneumoniae MTCC 109 assessed as diameter of growth inhibition zone after 24 hr; type: functional
[21] = tested on: Escherichia coli; test: Antimicrobial activity against Escherichia coli MTCC 739 assessed as diameter of growth inhibition zone after 24 hr; type: functional
[22] = tested on: Staphylococcus aureus; test: Antimicrobial activity against Staphylococcus aureus MTCC 96 assessed as diameter of growth inhibition zone after 24 hr; type: functional
[23] = tested on: Shigella flexneri; test: Antimicrobial activity against Shigella flexneri MTCC1457 assessed as growth inhibition at 100 ug/ml after 24 hr by agar streak dilution method; type: functional, organism-based
[24] = tested on: Escherichia coli; test: Antimicrobial activity against Escherichia coli MTCC 739 assessed as growth inhibition at 100 ug/ml after 24 hr by agar streak dilution method; type: functional, organism-based
[25] = tested on: Bacillus cereus; test: Antimicrobial activity against Bacillus cereus MTCC 430 assessed as growth inhibition after 24 hr by agar streak dilution method; type: functional; details: MTCC 430, 24 h
[26] = tested on: Bacillus cereus; test: Antimicrobial activity against Bacillus cereus MTCC 430 assessed as diameter of growth inhibition zone after 24 hr; type: functional
[27] = tested on: Staphylococcus aureus; test: Antimicrobial activity against Staphylococcus aureus MTCC 96 assessed as growth inhibition at 100 ug/ml after 24 hr by agar streak dilution method; type: functional, organism-based
[28] = tested on: Proteus vulgaris; test: Antimicrobial activity against Proteus vulgaris MTCC 1771 assessed as growth inhibition after 24 hr by agar streak dilution method; type: functional; details: MTCC 1771, 24 h
[29] = tested on: Pseudomonas aeruginosa; test: Antimicrobial activity against Pseudomonas aeruginosa MTCC 741 assessed as growth inhibition after 24 hr by agar streak dilution method; type: functional; details: MTCC 741, 24 h
[30] = tested on: Proteus vulgaris; test: Antimicrobial activity against Proteus vulgaris MTCC 1771 assessed as diameter of growth inhibition zone after 24 hr; type: functional
[31] = tested on: Pseudomonas aeruginosa; test: Antimicrobial activity against Pseudomonas aeruginosa MTCC 741 assessed as diameter of growth inhibition zone after 24 hr; type: functional

Question: Which results are given for `O=C(/C=C/c1ccc([N+](=O)[O-])cc1)c1ccc(Nc2cc(=O)oc3ccccc23)cc1`?
Answer: growth inhibition (GI) [1]: inactive; growth inhibition (GI) [2]: inactive; growth inhibition (GI) [3]: inactive; growth inhibition (GI) [4]: 95%; MIC [4]: 1000 µg/mL (≈ 2420 µM); MIC [5]: 100 µg/mL (≈ 242 µM); MIC [6]: 100 µg/mL (≈ 242 µM); MIC [7]: 100 µg/mL (≈ 242 µM); MIC [8]: 100 µg/mL (≈ 242 µM); MIC [9]: 100 µg/mL (≈ 242 µM); MIC [10]: 100 µg/mL (≈ 242 µM); MIC [11]: 100 µg/mL (≈ 242 µM); MIC [12]: 100 µg/mL (≈ 242 µM); MIC [13]: 100 µg/mL (≈ 242 µM); diameter of the inhibition zone (DIZ) [14]: 10 mm; diameter of the inhibition zone (DIZ) [15]: 12 mm; diameter of the inhibition zone (DIZ) [16]: <10 mm; diameter of the inhibition zone (DIZ) [17]: 11 mm; diameter of the inhibition zone (DIZ) [18]: 13 mm; diameter of the inhibition zone (DIZ) [19]: 14 mm; diameter of the inhibition zone (DIZ) [20]: 11 mm; diameter of the inhibition zone (DIZ) [21]: <10 mm; diameter of the inhibition zone (DIZ) [22]: <10 mm

Question: How did the “growth inhibition (GI)” value [23] turn out when `O=C(/C=C/c1ccccc1)c1ccc(Nc2cc(=O)oc3ccccc23)cc1` was run?
Answer: inactive

Question: And the “growth inhibition (GI)” value [24]?
Answer: inactive

Question: And the “growth inhibition (GI)” value [1]?
Answer: inactive

Question: What about the “growth inhibition (GI)” value [3] of the same molecule?
Answer: inactive

Question: And the “growth inhibition (GI)” value [4]?
Answer: 95%

Question: And the MIC [4]?
Answer: 1000 µg/mL (≈ 2720 µM)

Question: And the MIC [5]?
Answer: 100 µg/mL (≈ 272 µM)

Question: What about the MIC [6] of the same molecule?
Answer: 100 µg/mL (≈ 272 µM)

Question: What about the MIC [7] of the same molecule?
Answer: 100 µg/mL (≈ 272 µM)

Question: What about the MIC [8] of the same molecule?
Answer: 100 µg/mL (≈ 272 µM)

Question: And the MIC [10]?
Answer: 100 µg/mL (≈ 272 µM)

Question: And the MIC [11]?
Answer: 100 µg/mL (≈ 272 µM)

Question: What about the MIC [25] of the same molecule?
Answer: 100 µg/mL (≈ 272 µM)

Question: What about the “diameter of the inhibition zone (DIZ)” value [14] of the same molecule?
Answer: <10 mm

Question: What about the “diameter of the inhibition zone (DIZ)” value [15] of the same molecule?
Answer: 15 mm

Question: And the “diameter of the inhibition zone (DIZ)” value [16]?
Answer: 12 mm

Question: What about the “diameter of the inhibition zone (DIZ)” value [17] of the same molecule?
Answer: <10 mm

Question: And the “diameter of the inhibition zone (DIZ)” value [19]?
Answer: 11 mm

Question: And the “diameter of the inhibition zone (DIZ)” value [20]?
Answer: <10 mm

Question: What about the “diameter of the inhibition zone (DIZ)” value [26] of the same molecule?
Answer: <10 mm

Question: And the “growth inhibition (GI)” value [27]?
Answer: inactive

Question: What does the source list for `CC(=O)N1N=C(c2ccc(Nc3cc(=O)oc4ccccc34)cc2)CC1c1ccc([N+](=O)[O-])cc1` (stereo not given)?
Answer: growth inhibition (GI) [4]: 96%; MIC [4]: 500 µg/mL (≈ 1070 µM); MIC [5]: 100 µg/mL (≈ 213 µM); MIC [6]: 50 µg/mL (≈ 107 µM); MIC [7]: 100 µg/mL (≈ 213 µM); MIC [8]: 100 µg/mL (≈ 213 µM); MIC [9]: 100 µg/mL (≈ 213 µM); MIC [28]: 100 µg/mL (≈ 213 µM); MIC [10]: 100 µg/mL (≈ 213 µM); MIC [11]: 100 µg/mL (≈ 213 µM); MIC [29]: 100 µg/mL (≈ 213 µM); MIC [12]: 100 µg/mL (≈ 213 µM); MIC [25]: 100 µg/mL (≈ 213 µM); MIC [13]: 100 µg/mL (≈ 213 µM); diameter of the inhibition zone (DIZ) [14]: 15 mm; diameter of the inhibition zone (DIZ) [15]: 17 mm; diameter of the inhibition zone (DIZ) [16]: 13 mm; diameter of the inhibition zone (DIZ) [17]: 14 mm; diameter of the inhibition zone (DIZ) [18]: 13 mm; diameter of the inhibition zone (DIZ) [30]: <10 mm; diameter of the inhibition zone (DIZ) [19]: 17 mm; diameter of the inhibition zone (DIZ) [20]: 13 mm; diameter of the inhibition zone (DIZ) [31]: 11 mm; diameter of the inhibition zone (DIZ) [21]: 14 mm; diameter of the inhibition zone (DIZ) [26]: 11 mm; diameter of the inhibition zone (DIZ) [22]: 12 mm
